Experimental findings from PMC6380468, “Investigations on small molecule inhibitors targeting the histone H3K4 tri-methyllysine binding PHD-finger of JmjC histone demethylases” (Bioorganic & Medicinal Chemistry, 2018) are described below.

Where only a bound is given, the exact number is not on record here.

One assay deals with KDM7A (PHD-JmjC). The experiment in a line: MALDI-TOF MS H3K9me2 demethylation assay, KDM7A(PHD-JmjC). The format is biochemical, human. Conditions: at 100 µM, substrate H3(1–15)K9me2. Here is the method: Final concentrations were: 1mM ascorbate, 50 µM (NH4)2Fe(II)(SO4)2 and 200 µM 2OG. The mixture was quenched using formic acid after 10 minutes (KDM7A) or 5 minutes (KDM7B).

Assay [1] in a line: AlphaScreen biotin-His6 counterscreen. Conditions: AlphaScreen interference counterscreen with biotin-His6; unit inferred; DNC = data did not converge to binding model; NM = not measurable within the solubility range.
A further assay concerns the target T1, KDM7A(PHD) (Homo sapiens, UniProt Q6ZMT4).
T1 construct: made in house
T1 sequence (Q6ZMT4 37-88 limits assumed): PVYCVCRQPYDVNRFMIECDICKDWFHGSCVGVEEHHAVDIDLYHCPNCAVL
The experiment in a line: AlphaScreen displacement of H3K4me3-Bn from His-KDM7A(PHD). It is filed as binding. To be noted: AlphaScreen; 6.25 nM KDM7A(PHD) and 25 nM peptide; n ≥ 3; read-out: IC50 for displacement of H3K4me3-Bn from His-KDM7A(PHD). Here is the method:
For peptide displacement assays, 5 µL of the inhibitor dilution series (at a concentration of 4% DMSO in AlphaScreen assay buffer) was pre-incubated with 5 µL of the protein at RT for 15 minutes. Peptide solution (5 µL) was added and incubated for 30 minutes at RT, followed by the addition of 5 µL of a mixture of AlphaScreen Streptavidin donor beads and Nickel Chelate acceptor beads in AlphaScreen assay buffer (20 µg/mL final). The contents were incubated for 60-120 minutes at RT in the dark, followed by measurement of luminescence on a BMG Labtech Pherastar plate reader (Software Ver. 5.30 R3, Firmware Ver. 1.21). The data was plotted in Prism Ver 7.01 (GraphPad Software, Inc.) and fitted to a Log(inhibitor) v/s response – variable slope model in order to obtain IC50 values.

Another assay concerns the target T2, KDM5A_c2 (ΔARID/PHD1) (Homo sapiens, UniProt P29375).
T2 sequence (P29375 with tags, fused parts or gaps): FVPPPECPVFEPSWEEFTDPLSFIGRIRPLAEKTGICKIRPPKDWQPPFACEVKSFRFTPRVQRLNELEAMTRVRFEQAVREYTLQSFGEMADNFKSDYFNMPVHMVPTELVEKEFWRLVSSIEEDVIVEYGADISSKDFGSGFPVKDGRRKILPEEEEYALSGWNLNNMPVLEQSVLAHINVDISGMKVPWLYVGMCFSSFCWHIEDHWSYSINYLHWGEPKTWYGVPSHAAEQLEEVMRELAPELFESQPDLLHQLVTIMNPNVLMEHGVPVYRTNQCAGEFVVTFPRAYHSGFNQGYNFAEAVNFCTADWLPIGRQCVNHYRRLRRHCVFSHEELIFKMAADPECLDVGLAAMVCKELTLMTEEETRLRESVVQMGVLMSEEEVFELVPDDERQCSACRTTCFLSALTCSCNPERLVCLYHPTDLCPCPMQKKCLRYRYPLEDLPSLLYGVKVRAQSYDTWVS
Nature of the assay: MALDI-TOF MS H3K4me3 demethylation assay, KDM5A_c2. It is filed as biochemical. To be noted: average ± StdDev of n = 2, read-out: IC50, inhibition of H3K4me3 demethylation activity, KDM5A_c2. Here is the method:
(§1) Two catalytically active constructs of KDM5A were employed, KDM5A_c1 (M1-L801) and KDM5A_c2 (ΔARID/PHD1, P13-S744 with L88-G353 (ARID/PHD1) replaced with a GGGG linker) and both KDM5A_c1 and KDM5A_c2 constructs lack the PHD2 and PHD3. […] A MALDI-TOF MS assay was used to measure the activity of H3K4me3 demethylation in the presence of inhibitors (Table 2, Fig. 3C and D).
(§2) The KDM5A mixture (5 µL, KDM5A-c1: 1.0 µM or KDM5A-c2: 0.5 µM) was pre-incubated with 100 nL inhibitors (in DMSO) for 10 min. […] The mixture was quenched using formic acid (5 µL, 1 v/v% in MQ) after 4 minutes (KDM5A-c1) or 3 minutes (KDM5A-c2). The stopped reaction (1 µL) was mixed with […] (CHCA) MALDI matrix (saturated solution in TFA (0.1%) in MilliQ water and trifluoroacetic acid (0.1%) acetonitrile (1:1)) at 1:1 ratio (2 µL), air dried and analysed using Bruker microflex MALDI-TOF controlled with FlexControl. The data were further processed using FlexAnalysis and excel.

A further assay addresses T3, KDM5A_c1 (M1-L801) (Homo sapiens, UniProt P29375).
T3 construct: made in house
T3 sequence (P29375 1-801): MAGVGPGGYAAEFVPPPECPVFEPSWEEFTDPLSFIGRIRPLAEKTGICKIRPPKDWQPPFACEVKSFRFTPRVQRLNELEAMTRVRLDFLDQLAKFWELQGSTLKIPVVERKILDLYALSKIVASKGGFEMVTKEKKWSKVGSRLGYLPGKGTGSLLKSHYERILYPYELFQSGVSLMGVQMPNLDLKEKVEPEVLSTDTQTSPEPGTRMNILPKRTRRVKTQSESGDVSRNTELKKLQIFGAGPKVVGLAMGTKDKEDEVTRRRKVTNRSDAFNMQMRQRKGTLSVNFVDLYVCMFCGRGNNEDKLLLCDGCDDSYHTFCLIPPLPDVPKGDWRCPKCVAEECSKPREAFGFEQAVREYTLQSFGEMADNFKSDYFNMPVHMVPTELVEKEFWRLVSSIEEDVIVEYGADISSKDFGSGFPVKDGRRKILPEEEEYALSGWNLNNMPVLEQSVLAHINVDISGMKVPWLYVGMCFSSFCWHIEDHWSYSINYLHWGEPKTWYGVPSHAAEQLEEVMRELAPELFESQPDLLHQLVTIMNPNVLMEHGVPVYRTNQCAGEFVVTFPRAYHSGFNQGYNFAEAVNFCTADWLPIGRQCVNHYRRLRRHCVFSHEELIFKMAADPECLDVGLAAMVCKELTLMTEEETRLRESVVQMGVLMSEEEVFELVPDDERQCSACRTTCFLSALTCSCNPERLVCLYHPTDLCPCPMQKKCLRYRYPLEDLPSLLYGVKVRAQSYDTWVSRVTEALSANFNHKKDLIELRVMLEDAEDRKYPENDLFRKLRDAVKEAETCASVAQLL
The experiment in a line: MALDI-TOF MS H3K4me3 demethylation assay, KDM5A_c1. It is filed as biochemical. To be noted: average ± StdDev of n = 2, read-out: IC50, inhibition of H3K4me3 demethylation activity, KDM5A_c1. Here is the method:
as §1, §2

Broadly, the IC50 is the midpoint of a concentration-inhibition curve. Regarding `CCCCc1oc2ccccc2c1C(=O)c1ccc(OCCCN(C)C)cc1` [Compound 1a, (2-Butylbenzofuran-3-yl)(4-(3-(dimethylamino)propoxy)phenyl)methanone], the “KDM7A (PHD-JmjC) (Catalytic), inhibition of H3K9me2 demethylation” value in the assay with KDM7A (PHD-JmjC) is 100% (100 µM). Moreover, the IC50 in assay [1] was 484 ± 82 µM; at KDM7A(PHD) it was 333 ± 39 µM; on KDM5A_c2 (ΔARID/PHD1) it was above 1000 µM; at KDM5A_c1 (M1-L801) it was above 1000 µM.

As to `CCCCc1oc2ccccc2c1C(=O)c1ccc(OCCC[N+](C)(C)C)cc1.[I-]` [Compound 2a, 3-(4-(2-Butylbenzofuran-3-carbonyl)phenoxy)-N,N,N-trimethylpropan-1-aminium iodide], in the assay on KDM7A (PHD-JmjC), the “KDM7A (PHD-JmjC) (Catalytic), inhibition of H3K9me2 demethylation” value is 100% (100 µM). Also, the IC50 in assay [1] was 4300 ± 163 µM; on KDM7A(PHD), 86 ± 9 µM; at KDM5A_c2 (ΔARID/PHD1) it was 37 ± 14 µM; at KDM5A_c1 (M1-L801), 80 ± 29 µM.
